Measured values taken from paper PMC6225304, “Design, Synthesis, and Neuroprotective Effects of a Series of Pyrazolines against 6-Hydroxydopamine-Induced Oxidative Stress” (Molecules : A Journal of Synthetic Chemistry and Natural …, 2018).
Values joined by “and” are separate entries in the source; they are usually repeats but may differ in a detail not shown here. Identical values can stand only once. Like-named read-outs stand apart in the source and are kept apart here.

Assays:
[1] = system: differentiated PC-12 Adh cells; test: Neuroprotective activity against 6-OHDA-induced neurotoxicity (WST-1 cell viability); type: cell-based, rat; details: for induction in cell viability percentage compared with the 6-OHDA-positive control group (statistical analysis): 100 µg/mL, one-way ANOVA and Tukey’s post hoc test, ** p < 0.01
Description: (§1) PC-12 Adh cells were cultured in 10% horse serum, 5% fetal bovine serum, and 1% penicillin-streptomycin containing DMEM growth medium, at 37 °C in a humidified incubator with 5% CO2. The proliferating cells were passaged 1:2 to new 25 and/or 75 cm^2 flasks and cell stocks were prepared in order to use in future experiments. In order to induce PC-12 Adh cell differentiation into neuronal phenotype, growth medium was changed with 1% fetal bovine serum, 1% penicillin-streptomycin and 100 nM NGF containing DMEM differentiation medium.
(§2) The differentiated PC-12 Adh cells were scratched and plated onto 96-well culture plates at 5 × 10^3 density per well. […] After 24 h, the neuroprotective effects of the compounds were determined by WST-1 cell viability assay as explained above. The graphics were drawn according to the cell viability, which was expressed as percentage of the surviving control cells in the study.
(§3) The graphics were drawn with Graphpad Prism 6.0 software and statistically analyzed using one-way ANOVA and Tukey’s post hoc test.

[2] = system: differentiated PC-12 Adh cells; test: WST-1 cell viability assay for non-cytotoxic concentrations; type: cell-based, rat; details: for IC50: Rattus norvegicus, read-out: IC50 (cell viability assay)
Description: as §1
Differentiated PC-12 Adh cells were stained with Trypan blue solution and counted by a cell counter device (Cedex XS, Innovatis, Malvern, PA, USA) in order to determine the appropriate cell numbers before the experiments.
In order to obtain non-cytotoxic concentrations of the compounds, the viability of neuronal cells was measured by using 2-(4-iodophenyl)-3-(4-nitrophenyl)-5-(2,4-disulfophenyl)-2H-tetrazolium sodium salt (WST-1) assay (Roche, Mannheim, Germany). The test is based on the cleavage of the tetrazolium salt WST-1 in formazan by mitochondrial dehydrogenases in viable cells. The formazan dye was quantified in a scanning multiwell spectrophotometer by measuring the absorbance of the dye at 420 nm. The differentiated PC-12 Adh cells were scratched and plated onto 96-well culture plates at 5 × 10^3 density per well. […] After the incubation period, the cell proliferation reagent WST-1 (10 μL per well) was added to the wells; and absorbances were measured after 3 h using a Cytation 3 cell imaging multi-mode reader at 420 nm (BioTek, Winooski, VT, USA). The measured absorbances directly correlated to the number of viable cells.

[3] = Neuroprotective activity against 6-OHDA-induced neurotoxicity (WST-1 cell viability); type: cell-based, rat; details: rat, 150 µM 6-OHDA alone for 24 h (positive control); % of the control
Description: as §1, §2, §3

[4] = 100 µg/mL compound for 6 h, then 150 µM 6-OHDA for 24 h
[5] = differentiated PC-12 Adh cells, 24 h treatment, WST-1

SMILES	IC50 [2, 5] [µg/mL]	other results
Cc1ccc(/C=C/C(=O)c2ccco2)cc1 [Compound 1, 1-(2-Furanyl)-3-aryl-2-propen-1-one]	12	melting point: 111 to 113 °C; reduction in cell viability ([1]; 10 µg/mL compound for 6 h, then 150 µM 6-OHDA for 24 h): 40%; reduction in cell viability [1, 4]: 97%; cytotoxicity (effect on cell viability, in words) ([2]; differentiated PC-12 Adh cells, 100 µg/mL): highly cytotoxic
O=C(/C=C/c1ccc2c(c1)OCO2)c1cccs1 [Compound 2, 1-(2-Thienyl)-3-aryl-2-propen-1-one]	345	reduction in cell viability [1, 4]: 34.1%
Cc1ccc(C2CC(c3ccco3)=NN2c2ccccc2)cc1 (centres unmarked) [Compound 3a, 1-Phenyl-3-(2-furanyl)-5-(4-methylphenyl)-2-pyrazoline]	> 400	
Cc1ccc(C2CC(c3ccco3)=NN2c2ccc(C#N)cc2)cc1 (centres unmarked) [Compound 3b, 1-(4-Cyanophenyl)-3-(2-furanyl)-5-(4-methylphenyl)-2-pyrazoline]	204	
Cc1ccc(C2CC(c3ccco3)=NN2c2ccc(F)cc2)cc1 (centres unmarked) [Compound 3c, 1-(4-Fluorophenyl)-3-(2-furanyl)-5-(4-methylphenyl)-2-pyrazoline]	353	
Cc1ccc(C2CC(c3ccco3)=NN2c2ccc(Cl)cc2)cc1 (centres unmarked) [Compound 3d, 1-(4-Chlorophenyl)-3-(2-furanyl)-5-(4-methylphenyl)-2-pyrazoline]	> 400	
Cc1ccc(C2CC(c3ccco3)=NN2c2ccc(Br)cc2)cc1 (centres unmarked) [Compound 3e, 1-(4-Bromophenyl)-3-(2-furanyl)-5-(4-methylphenyl)-2-pyrazoline]	398	
Cc1ccc(C2CC(c3ccco3)=NN2c2ccc(C)cc2)cc1 (centres unmarked) [Compound 3f, 1-(4-Methylphenyl)-3-(2-furanyl)-5-(4-methylphenyl)-2-pyrazoline]	> 400	
COc1ccc(N2N=C(c3ccco3)CC2c2ccc(C)cc2)cc1 (centres unmarked) [Compound 3g, 1-(4-Methoxyphenyl)-3-(2-furanyl)-5-(4-methylphenyl)-2-pyrazoline]	> 400	
Cc1ccc(C2CC(c3ccco3)=NN2c2ccc(S(C)(=O)=O)cc2)cc1 (centres unmarked) [Compound 3h, 1-(4-Methylsulfonylphenyl)-3-(2-furanyl)-5-(4-methylphenyl)-2-pyrazoline]	> 400	reduction in cell viability [1, 4]: 20%; induction in cell viability percentage compared with the 6-OHDA-positive control group (statistical analysis) [1]: significant
Cc1ccc(C2CC(c3ccco3)=NN2c2ccc(S(N)(=O)=O)cc2)cc1 (centres unmarked) [Compound 3i, 1-(4-Sulfonamidophenyl)-3-(2-furanyl)-5-(4-methylphenyl)-2-pyrazoline]	205	
c1ccc(N2N=C(c3cccs3)CC2c2ccc3c(c2)OCO3)cc1 (centres unmarked) [Compound 4a, 1-Phenyl-3-(2-thienyl)-5-(1,3-benzodioxol-5-yl)-2-pyrazoline]	> 400	
N#Cc1ccc(N2N=C(c3cccs3)CC2c2ccc3c(c2)OCO3)cc1 (centres unmarked) [Compound 4b, 1-(4-Cyanophenyl)-3-(2-thienyl)-5-(1,3-benzodioxol-5-yl)-2-pyrazoline]	> 400	
Fc1ccc(N2N=C(c3cccs3)CC2c2ccc3c(c2)OCO3)cc1 (centres unmarked) [Compound 4c, 1-(4-Fluorophenyl)-3-(2-thienyl)-5-(1,3-benzodioxol-5-yl)-2-pyrazoline]	> 400	
Clc1ccc(N2N=C(c3cccs3)CC2c2ccc3c(c2)OCO3)cc1 (centres unmarked) [Compound 4d, 1-(4-Chlorophenyl)-3-(2-thienyl)-5-(1,3-benzodioxol-5-yl)-2-pyrazoline]	> 400	
Brc1ccc(N2N=C(c3cccs3)CC2c2ccc3c(c2)OCO3)cc1 (centres unmarked) [Compound 4e, 1-(4-Bromophenyl)-3-(2-thienyl)-5-(1,3-benzodioxol-5-yl)-2-pyrazoline]	> 400	
Cc1ccc(N2N=C(c3cccs3)CC2c2ccc3c(c2)OCO3)cc1 (centres unmarked) [Compound 4f, 1-(4-Methylphenyl)-3-(2-thienyl)-5-(1,3-benzodioxol-5-yl)-2-pyrazoline]	239	
COc1ccc(N2N=C(c3cccs3)CC2c2ccc3c(c2)OCO3)cc1 (centres unmarked) [Compound 4g, 1-(4-Methoxyphenyl)-3-(2-thienyl)-5-(1,3-benzodioxol-5-yl)-2-pyrazoline]	252	
CS(=O)(=O)c1ccc(N2N=C(c3cccs3)CC2c2ccc3c(c2)OCO3)cc1 (centres unmarked) [Compound 4h, 1-(4-Methylsulfonylphenyl)-3-(2-thienyl)-5-(1,3-benzodioxol-5-yl)-2-pyrazoline]	> 400	reduction in cell viability [1, 4]: 23%; induction in cell viability percentage compared with the 6-OHDA-positive control group (statistical analysis) [1]: significant
NS(=O)(=O)c1ccc(N2N=C(c3cccs3)CC2c2ccc3c(c2)OCO3)cc1 (centres unmarked) [Compound 4i, 1-(4-Sulfonamidophenyl)-3-(2-thienyl)-5-(1,3-benzodioxol-5-yl)-2-pyrazoline]	> 400	
NCCc1cc(O)c(O)cc1O [Compound 6-OHDA, 6-hydroxydopamine]		viability at 24 h, 150 µM [3]: 57%; reduction in cell viability ([1]; 150 µM 6-OHDA alone for 24 h (positive control)): 42.13% and 43% and 42%; IC50 ([2]; PC-12, 24 h): 150 µM
